Assay results reported in article PMC9180903, “Substituted Syndecan-2-Derived Mimetic Peptides Show Improved Antitumor Activity over the Parent Syndecan-2-Derived Peptide” (International Journal of Molecular Sciences, 2022).
Ends that are not written are not given here.

What was measured:
[1] = system: MMPs; design: method as in PMID 29735645, PMID 9484924, PMID 10100701, PMID 12085177; settings: batimastat phase I, marimastat phase III; cited from earlier work
[2] = biological target: T1, pro-domain of MMP-7 (PDMMP-7) (Homo sapiens, UniProt P09237); test: Fluorescence titration of peptides against MMP-7 pro-domain; assay type: binding; settings: fluorescence spectroscopy; for Kd: ex 280 nm, em 347 nm, 10 μM PDMMP-7, peptide titrated up to 1:80, PBS pH 7.4, 25 °C
T1 construct: TRX-His tag (N, cleaved yes); made in house
T1 sequence (P09237 18-94 limits assumed): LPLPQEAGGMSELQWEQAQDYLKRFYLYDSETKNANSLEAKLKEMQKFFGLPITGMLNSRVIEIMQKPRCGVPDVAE
Description: The gene encoding the pro-domain sequence (PDMMP-7) was cloned into the pET32a vector, which has a TRX-His tag at the N-terminus, for protein expression and purification. Between the TRX-His tag and the pro-domain, a TEV cleavage sequence was inserted. Proteins were overexpressed with 1 mM IPTG and isolated using Ni-NTA affinity chromatography. The purified TRX-His tag-PDMMP-7 was incubated with TEV protease at a 1:1 molar ratio for 12 h. The reaction mixture was further purified in phosphate-buffered saline (PBS) buffer at pH 7.4 using a HiLoad^TM superdex^TM 75 column (GE Healthcare, Little Chalfont, UK) to remove tags. The final protein sample was concentrated to 14 mg/mL for the fluorescence experiment.
The binding affinity between the PDMMP-7 and each synthetic peptide was measured at 298 K (25 °C) using an LS55 fluorescence spectrophotometer (Perkin Elmer, Waltham, MA, USA) at wavelengths of 280 nm (excitation) and 300–450 nm (emission). PDMMP-7 and peptides were prepared in phosphate-buffered saline (PBS) buffer at pH 7.4. The concentration of PDMMP-7 was set at 10 μM, and the input amount of each peptide versus PDMMP-7 was titrated at a molar ratio up to 1:80 using a thermostat cuvette. The dissociation constant (Kd) of the PDMMP-7/peptide complex was calculated using the equation log[(Fo − F)/F] = log(1/Kd) + nlog[ligand], where Fo and F represent the fluorescence intensity of PDMMP-7 at 347 nm in the absence and presence of the peptide, respectively, and n represents the number of binding sites.

[3] = system: HCT116 cells; test: MTT assay; assay type: cell-based, human; settings: 50 nM peptide
Description: (§1) Cell proliferation was measured by a colorimetric assay using 3-(4,5-dimethythiazol-2-yl) 2,5-diphenyltetrazolium bromide (MTT; Amresco, Solon, OH, USA) according to the manufacturer’s instructions. Briefly, cells were harvested with 0.05% trypsin/EDTA and seeded to 48-well plates (Thermo Fisher Scientific). After cells were allowed to attach to the plate for 24 h, medium containing 0.5 mg/mL MTT was added to each plate and incubation was continued for 1 h. The medium was then removed, and 200 μL of dimethyl sulfoxide (DMSO) was added to each plate for 30 min at room temperature. The mean concentration of absorbance at 570 nm in each set of samples was measured using a 96-well microtiter plate reader (Dynatech, Chantilly, VA, USA).

[4] = system: HT29-SDC2 cells; test: MTT assay; assay type: cell-based, human; settings: 50 nM, up to 48 h
Description: as §1

[5] = biological target: T2, pro-domain of matrix metalloproteinase-7 (MMP-7); test: other fluorescence titration; intrinsic fluorescence of PDMMP-7 (10 μM; excitation 280 nm, emission 300-450 nm, read at 347 nm), peptide titrated up to a molar ratio of 1:80, PBS pH 7.4, 298 K (25 °C)
T2 sequence (P09237 whole entry, species assumed, looked up): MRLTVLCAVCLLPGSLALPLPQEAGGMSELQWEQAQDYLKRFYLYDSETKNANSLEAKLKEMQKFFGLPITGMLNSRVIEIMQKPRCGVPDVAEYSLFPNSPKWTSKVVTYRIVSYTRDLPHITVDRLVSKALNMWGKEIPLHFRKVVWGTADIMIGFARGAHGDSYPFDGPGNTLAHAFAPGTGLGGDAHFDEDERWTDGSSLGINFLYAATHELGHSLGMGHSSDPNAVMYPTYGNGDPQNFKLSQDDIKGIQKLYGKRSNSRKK

With `CNC(=O)[C@@H](NC(=O)[C@H](CC(C)C)[C@H](O)C(=O)NO)C(C)(C)C` [marimastat] as the molecule, how does the “side effects in clinical trials” value [1] read?
The value was “significant musculoskeletal toxicity”.

Which Kd [2] does the source give for SGVYPIDDDDYASASGSGAD [S2-P] here?
Its Kd is 1220 µM.

With SGVYPIDDDDYDSASGSGAD [S2-D] as the molecule, how does the Kd [2] read?
Its Kd is 550 µM.

And the “cytotoxicity in HCT116 cells” value [3]?
Its value is “did not exert cytotoxicity”.

And the “cytotoxicity against HT29-SDC2 cells” value [4]?
The value was “Neither peptide showed cytotoxicity”.

What does the source list for SGVYPIDDFDYESASGSGAD [S2-FE]?
Kd [2]: 456 µM; cytotoxicity in HCT116 cells [3]: did not exert cytotoxicity; cytotoxicity against HT29-SDC2 cells [4]: Neither peptide showed cytotoxicity

Which “binding to the MMP-7 pro-domain compared to S2-P” value ([2]; PBS pH 7.4, 25 °C) does the source give for “SGVYPIDDLDYASASGSGAD [S2-L, modified SDC2-mimetic peptide derived from S2-P]” here?
Its value is “reduced binding”.

For SGVYPIFDLDYDSASGSGAD [S2-FLD], which Kd [2] is on record?
The Kd was 64 µM.

B1: S2-FE, SDC2-mimetic peptide (peptide)
peptide: SGVYPIDDFDYESASGSGAD
For B1, which Kd [5] is on record?
The Kd was 456 µM.

B2: S2-D, SDC2-mimetic peptide with an Ala-to-Asp substitution at the C-terminal side of Tyr 51 (peptide)
peptide: SGVYPIDDDDYDSASGSGAD
For B2, which Kd [5] is on record?
Its Kd is 550 µM.

B3: S2-FLD, SDC2-mimetic peptide (peptide)
peptide: SGVYPIFDLDYDSASGSGAD
With B3 as the molecule, how does the Kd [5] read?
Its Kd is 64 µM.

B4: S2-P, synthetic peptide corresponding to human SDC2 extracellular domain residues 41-60 (peptide)
peptide: SGVYPIDDDDYASASGSGAD
Which Kd [5] does the source give for B4 here?
The Kd was 1220 µM.
